Data reported in patent publication US20070254882A1, “Sulfamide Derivatives and Pharmaceutical Composition for Upregulation of Lipid Metabolism Comprising Same” (CRYSTAL GENOMICS, INC., priority 2004, published 2007).

biological target: T1, human PPAR α (Homo sapiens, UniProt Q07869); experiment: Exogeneous PPAR α agonist assay (GAL4 DNA binding domain/PPAR α ligand binding domain, luciferase) in 293T cells; format: cell-based; design: scale not given here; conditions: 25 μM compound, 48 hours, luciferase activity increase relative to the control
T1 construct: expressed in transfected cells; host or cells: HepG2 (ATCC HB-8065) or 293T cells (ATCC CRL-1573)
T1 sequence (Q07869 239-466 limits assumed): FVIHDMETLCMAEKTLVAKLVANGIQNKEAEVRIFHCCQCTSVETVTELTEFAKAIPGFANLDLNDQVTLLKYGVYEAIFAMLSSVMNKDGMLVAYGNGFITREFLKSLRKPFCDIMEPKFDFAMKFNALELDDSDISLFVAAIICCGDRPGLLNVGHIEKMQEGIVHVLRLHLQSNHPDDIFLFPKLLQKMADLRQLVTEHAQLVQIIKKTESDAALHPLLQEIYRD
Procedure: Step 1) Exogeneous PPAR α Agonist Assay
Cross-activation assay of the compounds of Examples 1 to 134 against human PPAR α was carried out using a DNA construct of PPAR α including its ligand binding domain and GAL4 DNA binding domain (Sher et al., Biochemistry 32, 5598-5604, 1993) to analyze whether any of the compounds binds to the ligand binding domain of PPAR α expressed by the construct to affect the PPAR α activity. When the GAL4 DNA binding domainm which is fused with PPAR α ligand binding domain, binds to UAS (upstream activation sequence) of firefly-luciferase, the luciferase is expressed. Therefore, the effect of each of the compounds of Examples on PPAR α activation can be evaluated by analyzing the activation of luciferase.
Specifically, 2×10^4 of HepG2 (ATCC HB-8065) or 293T cells (ATCC CRL-1573) were aliquotted into each well of a 96-well plate and cultured for overnight at 37° C. in a CO2 incubator (culture condition: DMEM, 10% FBS and 1% antibiotics).
The transformation of PPAR α DNA was traced as follows. First, a mixture of the following ingredients in amounts per well; Solution A (Promega) containing 50 ng of full length human PPAR α DNA, 50 ng of firefly-luciferase construct, 5 ng of Renilla-luciferase construct, 1.0 μl of PLUS™ reagent, and 8.3 μl of a serum-free medium containing no antibiotics; was prepared and kept at room temperature for 15 min. Solution B, which contained 0.5 μl of Lipofectamine™ reagent and 9.5 μl of serum-free medium without antibiotics per well, and Solution C, which contained 50 μl of serum-free medium per well), were prepared. Solutions A, B and C were mixed together to prepare lipofectamin-DNA complex, and the mixture was kept at room temperature for 15 min. Single layer of cells on each well of a 96-well plate were washed with serum-free DMEM, 70 μl of lipofectamine-DNA complex prepared above was added thereto, the plate was incubated at 37° C. in a 5% CO2 incubator for 3 hours to transform the cells, and […] of a diluted solution of each of the compounds of Examples 1 to 134 per well was added to each well to a final concentration 25 μM, and incubated at 37° C. in a CO2 incubator for 48 hours. Then, the medium was removed, 50 μl of passive lysis buffer (Promega) was added thereto, and the plate was shook at room temperature for 20 min to lysis cells. 40 μl of Luciferase Assay reagent of Dual Luciferase Kit […] per 20 μl of cell lysis buffer was added to the plate, followed by reacting at 20° C. for 8 seconds, and 40 μl of Stop & Glo reagent (Promega) as a stop solution was added thereto to quench the reaction. The luminescence intensities of F-luciferase and R-luciferase were measured with MicroLumat Plus (Berthord Technology).

SMILES	Activity at 25 μM Step 1 293T cell
Cc1oc(-c2ccccc2)nc1COc1cccc(CN(CC(=O)O)S(=O)(=O)N(C)C)c1 [Example 3, [N—[(N,N-dimethylamino)sulfonyl]-N-[3-[(2-phenyl-5-methyloxazol-4-yl)methoxy]benzyl]amino]acetic acid]	2
Cc1ccc(-c2nc(COc3cccc(CN(CC(=O)O)S(=O)(=O)N(C)C)c3)c(C)o2)cc1 [Example 4, [N—[(N,N-dimethylamino)sulfonyl]-N-[3-[[2-(4-methylphenyl)-5-methyloxazol-4-yl]methoxy]benzyl]amino]acetic acid]	3
Cc1oc(-c2cccs2)nc1COc1cccc(CN(CC(=O)O)S(=O)(=O)N(C)C)c1 [Example 12, [N—(N,N-dimethylamino)sulfonyl-N-[3-[[2-(thiophen-2-yl)-5-methyloxazol-4-yl]methoxy]benzyl]amino]acetic acid]	2
Cc1nc(-c2ccc(C(F)(F)F)cc2)oc1COc1cccc(CN(CC(=O)O)S(=O)(=O)N(C)C)c1 [Example 13, [N—(N,N-dimethylamino)sulfonyl-N-[3-[[2-(4-trifluoromethylphenyl)-4-methyloxazol-5-yl]methoxy]benzyl]amino]acetic acid]	2
Cc1oc(-c2ccccc2)nc1COc1cccc(CN(CC(=O)O)S(=O)(=O)N(C)c2ccccc2)c1 [Example 14, [N—[(N-methyl-N-phenyl)amino]sulfonyl-N-[3-[(2-phenyl-5-methyloxazol-4-yl)methoxy]benzyl]amino]acetic acid]	2
Cc1ccc(-c2nc(COc3cccc(CN(CC(=O)O)S(=O)(=O)N(C)c4ccccc4)c3)c(C)o2)cc1 [Example 15, [N—[(N-methyl-N-phenyl)amino]sulfonyl-N-[3-[[2-(4-methylphenyl)-5-methyloxazol-4-yl]methoxy]benzyl]amino]acetic acid]	2
Cc1oc(-c2ccccc2)nc1COc1cccc(CN(CC(=O)O)S(=O)(=O)N(C)c2ccc(Cl)cc2)c1 [Example 18, [N—[[N-methyl-N-(4-chlorophenyl)]amino]sulfonyl-N-[3-[(2-phenyl-5-methyloxazol-4-yl)methoxy]benzyl]amino]acetic acid]	2
Cc1ccc(-c2nc(COc3cccc(CN(CC(=O)O)S(=O)(=O)N(C)c4ccc(Cl)cc4)c3)c(C)o2)cc1 [Example 19, [N—[[N-methyl-N-(4-chlorophenyl)]amino]sulfonyl-N-[3-[[2-(4-methylphenyl)-5-methyloxazol-4-yl]methoxy]benzyl]amino]acetic acid]	2
Cc1oc(-c2ccc(C(F)(F)F)cc2)nc1COc1cccc(CN(CC(=O)O)S(=O)(=O)N(C)c2ccc(Cl)cc2)c1 [Example 20, [N—[[N-methyl-N-(4-chlorophenyl)]amino]sulfonyl-N-[3-[[2-(4-trifluoromethylphenyl)-5-methyloxazol-4-yl]methoxy]benzyl]amino]acetic acid]	2
Cc1oc(-c2ccc(C(F)(F)F)cc2)nc1COc1cccc(CN(CC(=O)O)S(=O)(=O)N2CCCC2)c1 [Example 25, [N-(pyrrolidinyl)sulfonyl-N-[3-[[2-(4-trifluoromethylphenyl)-5-methyloxazol-4-yl]methoxy]benzyl]amino]acetic acid]	2
Cc1nc(-c2ccc(C(F)(F)F)cc2)oc1COc1cccc(CN(CC(=O)O)S(=O)(=O)N2CCCC2)c1 [Example 26, [N-(pyrrolidinyl)sulfonyl-N-[3-[[2-(4-trifluoromethylphenyl)-4-methyloxazol-5-yl]methoxy]benzyl]amino]acetic acid]	2
Cc1oc(-c2ccc(C(F)(F)F)cc2)nc1COc1cccc(CN(CC(=O)O)S(=O)(=O)N2CCN(C)CC2)c1 [Example 27, [N-(4-methyl-1-piperazinyl)sulfonyl-N-[3-[[2-(4-trifluoromethylphenyl)-5-methyloxazol-4-yl]methoxy]benzyl]amino]acetic acid]	1
Cc1nc(-c2ccc(C(F)(F)F)cc2)oc1COc1cccc(CN(CC(=O)O)S(=O)(=O)N2CCOCC2)c1 [Example 29, [N-(morpholinyl)sulfonyl-N-[3-[[2-(4-trifluoromethylphenyl)-4-methyloxazol-5-yl]methoxy]benzyl]amino]acetic acid]	2
Cc1oc(-c2ccccc2)nc1COc1cccc(CN(CC(=O)O)S(=O)(=O)N2CCc3ccccc32)c1 [Example 30, [N-(indolinyl)sulfonyl-N-[3-[(2-phenyl-5-methyloxazol-4-yl)methoxy]benzyl]amino]acetic acid]	2
Cc1ccc(-c2nc(COc3cccc(CN(CC(=O)O)S(=O)(=O)N4CCc5ccccc54)c3)c(C)o2)cc1 [Example 31, [N-(indolinyl)sulfonyl-N-[3-[[2-(4-methylphenyl)-5-methyloxazol-4-yl]methoxy]benzyl]amino]acetic acid]	3
Cc1oc(-c2ccc(C(F)(F)F)cc2)nc1COc1cccc(CN(CC(=O)O)S(=O)(=O)N2CCc3ccccc32)c1 [Example 32, [N-(indolinyl)sulfonyl-N-[3-[[2-(4-trifluoromethylphenyl)-5-methyloxazol-4-yl]methoxy]benzyl]amino]acetic acid]	2
Cc1oc(-c2ccccc2)nc1COc1cccc(CN(CC(=O)O)S(=O)(=O)N2CCCc3ccccc32)c1 [Example 34, [N-(1,2,3,4-tetrahydroquinolinyl)sulfonyl-N-[3-[(2-phenyl-5-methyloxazol-4-yl)methoxy]benzyl]amino]acetic acid]	2
Cc1ccc(-c2nc(COc3cccc(CN(CC(=O)O)S(=O)(=O)N4CCCc5ccccc54)c3)c(C)o2)cc1 [Example 35, [N-(1,2,3,4-tetrahydroquinolinyl)sulfonyl-N-[3-[[2-(4-methylphenyl)-5-methyloxazol-4-yl]methoxy]benzyl]amino]acetic acid]	2
Cc1oc(-c2ccc(C(F)(F)F)cc2)nc1COc1cccc(CN(CC(=O)O)S(=O)(=O)N2CCCc3ccccc32)c1 [Example 36, [N-(1,2,3,4-tetraquinolinyl)sulfonyl-N-[3-[[2-(4-trifluoromethylphenyl)-5-methyloxazol-4-yl]methoxy]benzyl]amino]acetic acid]	2
Cc1oc(-c2ccccc2)nc1COc1ccc(CN(CC(=O)O)S(=O)(=O)N(C)C)cc1 [Example 38, [N—(N,N-dimethylamino)sulfonyl-N-[4-[(2-phenyl-5-methyloxazol-4-yl)methoxy]benzyl]amino]acetic acid]	2
Cc1ccc(-c2nc(COc3ccc(CN(CC(=O)O)S(=O)(=O)N(C)C)cc3)c(C)o2)cc1 [Example 39, [N—(N,N-dimethylamino)sulfonyl-N-[4-[[2-(4-methylphenyl)-5-methyloxazol-4-yl]methoxy]benzyl]amino]acetic acid]	2
Cc1oc(-c2ccc(C(F)(F)F)cc2)nc1COc1ccc(CN(CC(=O)O)S(=O)(=O)N(C)C)cc1 [Example 40, [N—(N,N-dimethylamino)sulfonyl-N-[4-[[2-(4-trifluoromethylphenyl)-5-methyloxazol-4-yl]methoxy]benzyl]amino]acetic acid]	2
Cc1ccc(-c2nc(COc3ccc(CN(CC(=O)O)S(=O)(=O)N4CCCC4)cc3)c(C)o2)cc1 [Example 42, [N-(pyrrolidinyl)sulfonyl-N-[4-[[2-(4-methylphenyl)-5-methyloxazol-4-yl]methoxy]benzyl]amino]acetic acid]	3
